Test results from ChEMBL document CHEMBL3045398, “Fungicidal activities of cyflufenamid against various plant-pathogenic fungi” (J Pestic Sci, 2006).
Active and inactive are the calls of the source. No cut-off for these calls is given here.

How the values were obtained:
Fusarium oxysporum = assay: Fungicidal activity against Fusarium oxysporum assessed as inhibition of mycelial growth measured after 3 to 20 days by agar dilution method; assay type: functional, organism-based
[1] = test system: Colletotrichum gloeosporioides; assay: Fungicidal activity against Glomerella cingulata assessed as inhibition of mycelial growth measured after 3 to 20 days by agar dilution method; assay type: functional, organism-based
[2] = test system: Blumeria graminis f. sp. tritici; assay: Fungicidal activity against Blumeria graminis f. sp. tritici on wheat (Triticum aestivum, cv. Chihoku) assessed as powdery mildew disease control at 0.2 ppm measured after 5 to 10 days; assay type: functional
Botrytis cinerea = assay: Fungicidal activity against Botryotinia fuckeliana on kidney bean (Phaseolus vulgaris, cv. Nagauzura) assessed as grey mold disease control at 200 ppm measured after 5 to 10 days; assay type: functional
Bipolaris oryzae = assay: Fungicidal activity against Bipolaris oryzae assessed as inhibition of mycelial growth measured after 3 to 20 days by agar dilution method; assay type: functional, organism-based
Erysiphe necator = assay: Fungicidal activity against Erysiphe necator in grape assessed as powdery mildew disease control measured after 7 to 10 days by pot test; assay type: functional
[3] = test system: Blumeria graminis f. sp. tritici; assay: Fungicidal activity against Blumeria graminis f. sp. tritici on wheat leaves assessed as rate of appressorium formation measured at 3.1 ppm after 76 hr; assay type: functional
Cercospora kikuchii = assay: Fungicidal activity against Cercospora kikuchii assessed as inhibition of mycelial growth measured after 3 to 20 days by agar dilution method; assay type: functional, organism-based
Fulvia fulva = assay: Fungicidal activity against Fulvia fulva assessed as inhibition of mycelial growth measured after 3 to 20 days by agar dilution method; assay type: functional, organism-based
Pythium aphanidermatum = assay: Fungicidal activity against Pythium aphanidermatum assessed as inhibition of mycelial growth measured after 3 to 20 days by agar dilution method; assay type: functional, organism-based
[4] = test system: Blumeria graminis f. sp. tritici; assay: Fungicidal activity against Blumeria graminis f. sp. tritici on wheat leaves assessed as rate of appressorium formation measured at 0.8 ppm after 76 hr; assay type: functional
[5] = test system: Blumeria graminis f. sp. tritici; assay: Fungicidal activity against Blumeria graminis f. sp. tritici on wheat leaves assessed as spore formation measured at 12.5 ppm; assay type: functional
Trichoderma viride = assay: Fungicidal activity against Hypocrea rufa assessed as inhibition of mycelial growth measured after 3 to 20 days by agar dilution method; assay type: functional, organism-based
[6] = test system: Blumeria graminis f. sp. tritici; assay: Fungicidal activity against Blumeria graminis f. sp. tritici on wheat (Triticum aestivum, cv. Chihoku) assessed as powdery mildew disease control at 0.05 ppm measured after 5 to 10 days; assay type: functional
Cladosporium cucumerinum = assay: Fungicidal activity against Cladosporium cucumerinum assessed as inhibition of mycelial growth measured after 3 to 20 days by agar dilution method; assay type: functional, organism-based
Rhizoctonia solani = assay: Fungicidal activity against Rhizoctonia solani assessed as inhibition of mycelial growth measured after 3 to 20 days by agar dilution method; assay type: functional, organism-based
Phytophthora infestans = assay: Fungicidal activity against Phytophthora infestans assessed as inhibition of mycelial growth measured after 3 to 20 days by agar dilution method; assay type: functional, organism-based
Podosphaera leucotricha = assay: Fungicidal activity against Podosphaera leucotricha in apple assessed as powdery mildew disease control measured after 7 to 10 days by pot test; assay type: functional
[7] = test system: Blumeria graminis f. sp. tritici; assay: Fungicidal activity against Blumeria graminis f. sp. tritici on wheat (Triticum aestivum, cv. Chihoku) assessed as powdery mildew disease control at 0.01 ppm measured after 5 to 10 days; assay type: functional
[8] = test system: Blumeria graminis f. sp. tritici; assay: Fungicidal activity against Blumeria graminis f. sp. tritici on wheat leaves assessed as rate of appressorium formation measured at 12.5 ppm after 76 hr; assay type: functional
[9] = test system: Blumeria graminis f. sp. tritici; assay: Fungicidal activity against Blumeria graminis f. sp. tritici on wheat leaves assessed as rate of spore germination measured at 12.5 ppm after 3 hr (reference value: 22.5 +/- 7.6%); assay type: functional
Monilinia fructicola [10] = assay: Fungicidal activity against Monilinia fructicola assessed as rounded hyphae and various size vessicles measured by Transmission electron microscopy; assay type: functional, organism-based
Podosphaera pannosa = assay: Fungicidal activity against Podosphaera pannosa in rose assessed as powdery mildew disease control measured after 7 to 10 days by pot test; assay type: functional
[11] = test system: Blumeria graminis f. sp. tritici; assay: Fungicidal activity against Blumeria graminis f. sp. tritici on wheat leaves assessed as colony formation measured at 0.2 ppm; assay type: functional
[12] = test system: Blumeria graminis f. sp. tritici; assay: Fungicidal activity against Blumeria graminis f. sp. tritici on wheat leaves assessed as rate of appressorium formation measured at 12.5 ppm after 168 hr; assay type: functional
Venturia inaequalis = assay: Fungicidal activity against Venturia inaequalis on apple (Malus pumila var. domestica, cv. Rall's Janett) assessed as scab control at 200 ppm measured after 5 to 10 days; assay type: functional
[13] = test system: Blumeria graminis f. sp. tritici; assay: Fungicidal activity against Blumeria graminis f. sp. tritici on wheat leaves assessed as rate of spore germination measured at 12.5 ppm after 12 hr (reference value: 67.4 +/- 8.6%); assay type: functional
Taphrina deformans = assay: Fungicidal activity against Taphrina deformans assessed as inhibition of mycelial growth measured after 3 to 20 days by agar dilution method; assay type: functional, organism-based
Verticillium dahliae = assay: Fungicidal activity against Verticillium dahliae assessed as inhibition of mycelial growth measured after 3 to 20 days by agar dilution method; assay type: functional, organism-based
Parastagonospora nodorum = assay: Fungicidal activity against Phaeosphaeria nodorum assessed as inhibition of mycelial growth measured after 3 to 20 days by agar dilution method; assay type: functional, organism-based
Cercospora = assay: Fungicidal activity against Cercospora theae assessed as inhibition of mycelial growth measured after 3 to 20 days by agar dilution method; assay type: functional, organism-based
[14] = test system: Blumeria graminis f. sp. tritici; assay: Fungicidal activity against Blumeria graminis f. sp. tritici on wheat leaves assessed as rate of spore germination measured at 12.5 ppm after 24 hr (reference value: 72.2 +/- 4.2%); assay type: functional
Monilinia fructicola [15] = assay: Fungicidal activity against Monilinia fructicola assessed as vacuolated hyphae measured by Transmission electron microscopy; assay type: functional, organism-based
[16] = test system: Blumeria graminis f. sp. tritici; assay: Fungicidal activity against Blumeria graminis f. sp. tritici on wheat leaves assessed as colony formation measured at 3.1 ppm; assay type: functional
Rosellinia necatrix = assay: Fungicidal activity against Rosellinia necatrix assessed as inhibition of mycelial growth measured after 3 to 20 days by agar dilution method; assay type: functional, organism-based
[17] = test system: Blumeria graminis f. sp. tritici; assay: Fungicidal activity against Blumeria graminis f. sp. tritici on wheat leaves assessed as colony formation measured at 0.8 ppm; assay type: functional
Monilinia fructicola [18] = assay: Fungicidal activity against Monilinia fructicola assessed as large septa measured by Transmission electron microscopy; assay type: functional, organism-based
Phomopsis = assay: Fungicidal activity against Phomopsis sp. assessed as inhibition of mycelial growth measured after 3 to 20 days by agar dilution method; assay type: functional, organism-based
Colletotrichum lagenaria = assay: Fungicidal activity against Colletotrichum lagenaria assessed as inhibition of mycelial growth measured after 3 to 20 days by agar dilution method; assay type: functional, organism-based
[19] = test system: Blumeria graminis f. sp. tritici; assay: Fungicidal activity against Blumeria graminis f. sp. tritici on wheat leaves assessed as rate of appressorium formation measured at 0.2 ppm after 168 hr; assay type: functional

O=C(Cc1ccccc1)N/C(=N\OCC1CC1)c1c(C(F)(F)F)ccc(F)c1F [CYFLUFENAMID]
EC50 (Fusarium oxysporum): > 100 ppm | EC50 [1]: > 100 ppm | Efficacy [2]: 66% | Efficacy (Botrytis cinerea): 0% | EC50 (Bipolaris oryzae): > 100 ppm | MIC (Erysiphe necator): < 1.6 µg/mL | inhibition at 3.1 ppm [3]: 99.4% | EC50 (Cercospora kikuchii): 1 ppm | EC50 (Fulvia fulva): > 100 ppm | EC50 (Pythium aphanidermatum): > 100 ppm | inhibition at 0.8 ppm [4]: 96.4% | inhibition at 12.5 ppm [5]: 100% | EC50 (Trichoderma viride): > 100 ppm | Efficacy [6]: 30% | EC50 (Cladosporium cucumerinum): > 100 ppm | EC50 (Rhizoctonia solani): > 100 ppm | EC50 (Phytophthora infestans): > 100 ppm | MIC (Podosphaera leucotricha): < 1.6 µg/mL | Efficacy [7]: 6% | inhibition at 12.5 ppm [8]: 100% | Activity [9]: 19.8% | Activity (Monilinia fructicola [10]): Active | MIC (Podosphaera pannosa): < 1.6 µg/mL | inhibition at 0.2 ppm [11]: 81.2% | inhibition at 12.5 ppm [12]: 100% | Efficacy (Venturia inaequalis): 0% | Activity [13]: 60.7% | EC50 (Taphrina deformans): 3 ppm | EC50 (Verticillium dahliae): > 100 ppm | EC50 (Parastagonospora nodorum): > 100 ppm | EC50 (Cercospora): > 100 ppm | Activity [14]: 61.5% | Activity (Monilinia fructicola [15]): Active | inhibition at 3.1 ppm [16]: 100% | EC50 (Rosellinia necatrix): 0.7 ppm | inhibition at 0.8 ppm [17]: 96.9% | Activity (Monilinia fructicola [18]): Active | EC50 (Phomopsis): > 100 ppm | EC50 (Colletotrichum lagenaria): > 100 ppm | inhibition at 0.2 ppm [19]: 80.1%
